Activity calls are given as the source filed them. The rule behind the calls is not given here.
Columns and labels:
[1] = test system: PC-3; test: Growth inhibition of serum starved human PC3 cells; assay type: functional
[2] = molecular target: T1, Peptidyl-prolyl cis-trans isomerase NIMA-interacting 1 (Homo sapiens, UniProt Q13526); test: Inhibition of Pin1 by PIn1 PPIase assay
[3] = molecular target: T1, Peptidyl-prolyl cis-trans isomerase NIMA-interacting 1; test: Inhibition of Pin1-mediated cyclin D1 expression in serum starved human PC3 cells; assay type: cell-based, PC-3
[4] = molecular target: Peptidyl-prolyl cis-trans isomerase A (Homo sapiens) (UniProt P62937); test: Inhibition of cyclophilin A
Chain of Peptidyl-prolyl cis-trans isomerase A (Homo sapiens) (P62937 whole entry, looked up): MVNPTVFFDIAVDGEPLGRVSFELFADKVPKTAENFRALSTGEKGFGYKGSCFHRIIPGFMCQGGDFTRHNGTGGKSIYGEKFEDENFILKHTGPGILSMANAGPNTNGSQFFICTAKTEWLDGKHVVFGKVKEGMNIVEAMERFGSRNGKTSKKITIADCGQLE

[5] = test system: PC-3; test: Inhibition of cyclin E1 expression in serum starved human PC3 cells; assay type: functional, cell-based
[6] = molecular target: T1, Peptidyl-prolyl cis-trans isomerase NIMA-interacting 1; test: Inhibition of Pin1 in serum starved human PC3 cells assessed as reduction in insulin-induced p7)S6 kinase phosphorylation; assay type: cell-based, PC-3
[7] = molecular target: Peptidyl-prolyl cis-trans isomerase FKBP1A (Homo sapiens) (UniProt P62942); test: Inhibition of FKBP12
Chain of Peptidyl-prolyl cis-trans isomerase FKBP1A (Homo sapiens) (P62942 whole entry): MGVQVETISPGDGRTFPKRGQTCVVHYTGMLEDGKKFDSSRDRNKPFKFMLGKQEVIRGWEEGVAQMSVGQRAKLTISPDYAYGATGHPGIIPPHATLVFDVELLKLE

[8] = molecular target: T1, Peptidyl-prolyl cis-trans isomerase NIMA-interacting 1; test: Binding affinity to Pin1 by isothermal calorimetry

T1 sequence (Q13526 whole entry): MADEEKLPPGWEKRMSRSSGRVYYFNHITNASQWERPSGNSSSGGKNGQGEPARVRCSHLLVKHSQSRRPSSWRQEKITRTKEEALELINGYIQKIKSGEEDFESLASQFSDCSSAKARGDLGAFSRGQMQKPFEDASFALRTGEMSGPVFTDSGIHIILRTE

O=C(O)c1nc(-c2ccccc2)[nH]c1C(=O)N(Cc1ccccc1)Cc1ccccc1
GI50 [1]: 21 µM
IC50 [2]: 4 µM

COc1cccc(-c2nc(C)c(C(=O)O)[nH]2)c1
IC50 [2]: 270 µM

O=C(O)c1[nH]c(-c2cccc(Cl)c2)nc1C(=O)N1CCOCC1
GI50 [1]: > 200 µM
IC50 [2]: 21 µM

NC(=O)CN(Cc1nc2ccccc2s1)C(=O)c1nc(-c2ccccc2)[nH]c1C(=O)O
GI50 [1]: > 80 µM
IC50 [2]: 0.52 µM

O=C(O)c1[nH]c(-c2ccccc2)nc1C(=O)N1CCOCC1
GI50 [1]: > 200 µM

CN(CC(=O)O)C(=O)c1nc(-c2ccccc2)[nH]c1C(=O)O
IC50 [2]: 9.4 µM

CN(CC(N)=O)C(=O)c1nc(-c2ccccc2)[nH]c1C(=O)O
GI50 [1]: > 200 µM

O=C(O)c1[nH]c(-c2ccccc2)nc1C(=O)N(CCc1ccccc1)Cc1ccccc1
GI50 [1]: 13 µM
EC50 [3]: 10 µM
IC50 [2]: 0.83 µM
inhibition [4]: inactive
inhibition [5]: inactive
EC50 [6]: 30 µM
inhibition [7]: inactive

Cc1nc(-c2cccc(C(F)(F)F)c2)[nH]c1C(=O)O
IC50 [2]: 23 µM

O=C(O)c1[nH]c(-c2cccc(Cl)c2)nc1C(=O)N(Cc1ccccc1)Cc1ccccc1
GI50 [1]: 18 µM
IC50 [2]: 1.4 µM
Kd [8]: 1400 nM

CNC(=O)c1nc(-c2ccccc2)[nH]c1C(=O)O
IC50 [2]: 80 µM

CCNC(=O)c1nc(-c2ccccc2)[nH]c1C(=O)O
IC50 [2]: 140 µM

CN(Cc1ccccc1)C(=O)c1[nH]c(-c2cccc(Cl)c2)nc1C(=O)O
GI50 [1]: 56 µM

CN(Cc1ccccc1)C(=O)c1nc(-c2ccccc2)[nH]c1C(=O)O
GI50 [1]: > 200 µM
IC50 [2]: 31 µM

Cc1cccc(-c2nc(C(=O)O)c(C)[nH]2)c1
IC50 [2]: 34 µM

Cc1nc(-c2cccc(C#N)c2)[nH]c1C(=O)O
IC50 [2]: 19 µM

COc1ccccc1-c1ccc(C(=O)O)o1
IC50 [2]: > 1000 µM

O=C(O)c1nc(-c2cccc(F)c2)[nH]c1C(=O)O
IC50 [2]: 0.32 µM
Kd [8]: 520 nM

CCOC(=O)CN(Cc1ccccc1)C(=O)c1nc(-c2ccccc2)[nH]c1C(=O)O
GI50 [1]: > 200 µM
IC50 [2]: 8 µM

O=C(O)c1nc(-c2ccccc2)[nH]c1C(=O)NCc1ccccc1
IC50 [2]: 220 µM

O=C(O)c1nc(-c2ccccc2)[nH]c1C(=O)O
IC50 [2]: 1.46 µM

— ChEMBL document CHEMBL1268960, “Discovery of cell-active phenyl-imidazole Pin1 inhibitors by structure-guided fragment evolution” (Bioorg Med Chem Lett, 2010)
